In publication PMC12858405, “Ideal efficacy photoswitching for chromocontrol of TRPC4/5 channel functions in live tissues” (Nature Chemical Biology, 2026):

Assays:
[1] = test system: Th+ neurons of Th-GCaMP6f (WT) mice; test: GCaMP6f Ca2+ imaging of Th+ neurons in arcuate nucleus brain slices with 355 nm photoswitching, Th-GCaMP6f (WT) mice; conditions: for EC50: Mus musculus, Neuron, read-out: EC50 of Z-isomer-induced Ca2+ responses (ΔAUC) in Th+ neurons, WT
Text: slices through the ARC of mice expressing the Ca2+ indicator GCaMP6f in Th+ neurons (Fig. 4),
we investigated (1) whether Ca2+ responses at endogenous TRPC5 expression levels can be
TRPC5 expression using TRPC5-deficient brain slices, (3) whether a dose dependence could be
detected, and (4) whether there are properties in channel activity that can be distinguished between
concentration-response measurements (Fig. 5d).

mouse TRPC5 = biological target: T1, mouse TRPC5 (Mus musculus, UniProt Q9QX29); test: FLIPR Ca2+ influx assay (Fluo-4) with 365/447 nm photoswitching, HEK293 stably expressing mouse TRPC5; format: cell-based; conditions: for Activity on TRPC5 in FLIPR screening: 365/447 nm cycles; for EC50: Z* = mostly-Z PSS under 365 nm LED, Fluo-4-loaded cells, read-out: Agonistic EC50 (365 nm) TRPC5
T1 construct: expressed in transfected cells; host or cells: HEK293 (ATCC CRL 1573), stably transfected, tetracycline-induced
T1 sequence (Q9QX29 1-975): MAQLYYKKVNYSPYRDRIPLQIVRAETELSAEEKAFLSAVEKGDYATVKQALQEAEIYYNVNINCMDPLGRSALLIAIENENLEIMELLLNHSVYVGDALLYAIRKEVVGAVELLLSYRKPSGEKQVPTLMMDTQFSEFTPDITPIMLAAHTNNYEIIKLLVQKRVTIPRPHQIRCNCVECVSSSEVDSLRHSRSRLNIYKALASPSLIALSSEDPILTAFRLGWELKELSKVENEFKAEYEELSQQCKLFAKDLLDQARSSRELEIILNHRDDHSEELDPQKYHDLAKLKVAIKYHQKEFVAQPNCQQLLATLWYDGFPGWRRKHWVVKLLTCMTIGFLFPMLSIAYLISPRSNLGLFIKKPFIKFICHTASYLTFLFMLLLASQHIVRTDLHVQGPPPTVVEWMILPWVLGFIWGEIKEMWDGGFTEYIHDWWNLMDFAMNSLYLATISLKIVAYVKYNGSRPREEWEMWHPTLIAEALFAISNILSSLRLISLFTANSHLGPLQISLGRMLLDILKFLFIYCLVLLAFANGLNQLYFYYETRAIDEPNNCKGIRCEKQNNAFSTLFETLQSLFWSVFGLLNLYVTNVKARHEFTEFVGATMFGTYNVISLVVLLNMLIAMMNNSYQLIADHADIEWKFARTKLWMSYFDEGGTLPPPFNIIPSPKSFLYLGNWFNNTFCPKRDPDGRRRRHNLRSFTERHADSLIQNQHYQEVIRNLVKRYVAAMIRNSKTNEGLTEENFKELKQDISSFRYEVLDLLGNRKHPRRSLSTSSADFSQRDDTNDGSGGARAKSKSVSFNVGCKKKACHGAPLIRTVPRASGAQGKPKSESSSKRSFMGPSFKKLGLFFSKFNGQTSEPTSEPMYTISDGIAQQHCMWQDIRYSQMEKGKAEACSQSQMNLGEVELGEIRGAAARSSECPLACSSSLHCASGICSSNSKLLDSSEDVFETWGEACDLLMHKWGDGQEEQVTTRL
Text: We initially screened for the photoswitchability of activity in cells using a fluorometric imaging plate reader (FLIPR) calcium flux assay, with HEK293 cells stably expressing mouse TRPC4β or mouse TRPC5. Note, however, that the parallel-throughput FLIPR setup is limited to use fixed light-emitting diodes at 365 nm (good Z) and 447 nm (suboptimal E), which, combined with the slowness of the onset and recovery of the fluorescence readout for calcium, causes the FLIPR results to underestimate the reagents’ true speed, degree and completion of TRPC chromocontrol (shown later). […]
3 Cultured Cell Lines (primarily for Fig. 1 and Fig. 2)
3.1 FLIPR Ca2+ influx assay in cell suspensions.
We initially screened for photoswitchability of activity in cells, using a fluorometric imaging plate reader (FLIPR) calcium flux assay, with human embryonic kidney cell line HEK293 stably transfected to express mouse TRPC4β- or TRPC5-CFP fusion protein (HEKmTRPC4β-CFP / HEKmTRPC5-CFP, HEK293 obtained from ATCC CRL 1573). The FLIPR setup provides high-content data, but it is limited to using LED wavelengths of 365 nm (best-Z) and 447 nm (suboptimal-E), while imaging at 470 nm excitation (Fluo-4 AM as Ca2+ indicator; this imaging light counteracts both PSSs). Therefore, we expected the FLIPR results to under-estimate the true chromocontrol power accessible to the reagents.
Cells were grown to 70%-90% confluency in a 75-cm2 culture flask, trypsinised, washed and resuspended in BSA-containing (0.1%) HBS, and supplemented with 3 µM Fluo-4/AM. Stably TRPC-transfected cells were induced with tetracycline 24 h prior to the experiments.42,43 After incubation at 37°C for 30 min [Fluo-4 loading], cells were again washed, resuspended, and dispensed (40 µl/well) into black pigmented, clear-bottom 384-well plates (Greiner µ-clear). To image the Fluo-4 fluorescence during the application and photoswitching of test compounds, these plates were first mounted to a Tecan Fluent 480 (Tecan, Männedorf, Switzerland) liquid handling device, equipped with a 384-tip multichannel arm and a gripper arm. A custom-made plate-imaging device was used for photoswitching during fluorescence imaging, which features LED-based excitation modules (365 nm and 447 nm used here for photoswitching, and 470 nm used here for Fluo-4 readout) projected onto the bottom of the microwell plate, with a cooled scientific complementary metal oxide sensor (sCMOS) camera (Zyla 5.5, Andor, Belfast, UK) equipped with a Nokton 42.5 mm f/0.95 (Voigtlaender, Fürth, Germany) for detection. The LEDs were controlled with an Arduino device and constant current drivers (1 A for 365 and 470 nm LEDs; 3 A for 447 nm LED); detection was under the control of Micromanager 2.0 software. Compounds were serially diluted and applied to the Fluo-4-loaded cell suspensions inside this custom plate-imaging device, then fluorescence intensities (under 470 nm excitation) were continuously recorded during programmed illuminations e.g. with alternating 365 nm and 447 nm phases.
Concentration-response curves for the Z-isomers (channel activation) were then constructed from the maximal signals during 365 nm phases, after a suitable number of "priming" cycles to allow the system to reach stable performance (Supplementary Fig. 13).
All experiments were conducted as a minimum of 3 independent experiments with each experiment averaging data in technical duplicates. […]
Cellular TRPC5 photoswitching: HEK cell Ca2+ influx photomodulation […]
Supplementary Figure 12. […] All […]
four compounds' profiles are consistent with their being ideal efficacy photoswitches (representative traces from one experiment out of ≥3 independent experiments each run in technical duplicates). […]
log c [nM] log c [nM] log c [nM] log c [nM]
Supplementary Figure 13. Dose-response for Z*-AzPico, Z*-AzPico2, Z*-AzHC, and Z*-AzHC2 on TRPC5 and […]

Row | Structure (SMILES) | Cells with sustained high Ca2+ signal lasting up to 3 min ([1]; 500 nM, 355 nm pulse) [%] | Cells with sustained high Ca2+ signal lasting up to 3 min (count) ([1]; 500 nM, 355 nm pulse) | EC50 [1] [nM] | Activity on TRPC5 in FLIPR screening (mouse TRPC5) | EC50 (mouse TRPC5) [nM] | Effect of E isomer alone on TRPC5 (mouse TRPC5; 12 pM to […], before 365-nm illumination)
1 | Cn1c(=O)n(CCCO)c(=O)c2c1nc(Oc1ccc(N=Nc3ccccc3)c(Cl)c1)n2Cc1ccc(Cl)cc1 [AzHC] | 42 | 14 of 33 | 130 ± 100 | photoswitchable activity | 6.4 | 
2 | Cn1c(=O)n(CCCO)c(=O)c2c1nc(Oc1ccc(/N=N\c3ccccc3)c(Cl)c1)n2Cc1ccc(Cl)cc1 [Z*-AzHC] |  |  | 130 ± 100 |  | 6.4 | 
3 | Cn1c(=O)n(CCCO)c(=O)c2c1nc(Oc1ccc(/N=N/c3ccccc3)c(OC(F)(F)F)c1)n2Cc1ccc(Cl)cc1 [E-AzPico] |  |  |  |  |  | no effect
4 | Cn1c(=O)n(CCCO)c(=O)c2c1nc(Oc1ccc(N=Nc3ccccc3)c(OC(F)(F)F)c1)n2Cc1ccc(Cl)cc1 [AzPico] |  | 13 out of 31 |  | photoswitchable activity | 4 | 
